{"source": "paper PMC5519620", "about": "(Frontiers in Cellular Neuroscience, 2017)", "key": {"[1]": {"system": "N-type calcium channels in dorsal root ganglion neurons", "conditions": "cited from earlier work"}, "[2]": {"system": "rat GABAB receptor (GABAB1a/GABAB2)", "assay_type": "cell-based"}, "[3]": {"system": "GABAB receptor", "conditions": "cited from earlier work"}, "[4]": {"system": "rat GABAB receptor (GABAB1/GABAB2)", "assay_type": "binding"}, "[5]": {"system": "GABAB receptor", "conditions": "cited from earlier work", "remark": "listed apart in the source"}, "[6]": {"system": "neuropathic pain models", "conditions": "in vivo; cited from earlier work"}, "[7]": {"system": "human α9α10 nAChR", "conditions": "cited from earlier work"}, "[8]": {"system": "N-type calcium channels", "conditions": "cited from earlier work"}}, "note": "“Also recorded” adds a separate entry of the source."}
{"substance": "Vc1.1", "values": [{"measurement": "Block of N-type calcium channels", "setting": "[1]", "value": "blocks N-type calcium channels in dorsal root ganglion; also recorded: block N-type calcium channels in DRG neurons"}, {"measurement": "Effect of G-protein signalling inhibition on N-type channel block", "setting": "[1]", "value": "block of N-type calcium channels was eliminated by pertussis toxin, intracellular GDPβS, or an inhibitor of pp60c-src tyrosine kinase"}, {"measurement": "GABABR activation (BRET change)", "setting": "[2]", "value": "do not activate GABABRs expressed in HEK cells; also recorded: no effect; also recorded: neither Vc1.1 nor any of the examined conotoxins activated the GABABR"}, {"measurement": "Competition with CGP54626", "setting": "[3]", "value": "did not compete for binding"}, {"measurement": "Displacement of CGP54626-Red", "setting": "[4]", "value": "No displacement; also recorded: None of these conotoxins prevented the binding of the competitive orthosteric antagonist CGP54626-Red"}, {"measurement": "Competition with [3H]CGP54626", "setting": "[5]", "value": "did not compete for binding with [3H]CGP54626"}, {"measurement": "Analgesic effect", "setting": "[6]", "value": "analgesic activity in several models of neuropathic pain"}, {"measurement": "Potency human vs. rat α9α10 nAChR", "setting": "[7]", "value": "much less potent at the human vs. rat α9α10 nAChR"}, {"measurement": "N-type calcium channel block in α9 KO neurons", "setting": "[8]", "value": "block N-type calcium channels in cultured neurons from α9 KO mice"}]}
